# Measured values reported in the supplement of paper PMC10307832.
# Columns and labels:
# Assay in all cases: relative viability (nuclei count vs DMSO), 5 days (fraction); higher = more cells survive
# NCI-H520 = system: NCI-H520
# Summary of the method: (§1)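 Relative viability is defined as nuclei in treated wells over nuclei in vehicle wells. Duplicate plates were run and medians reported. Lung cancer cell lines in 1536-well plates were dosed by pin tool one day after seeding, with one drug or with a fixed anchor-drug dose plus five library-drug doses (not always all listed) in √10 steps, and nuclei were counted after 5 days.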
# NCI-H358 = system: NCI-H358
# Summary of the method: as §1
# LCLC-103H = system: LCLC-103H
# Summary of the method: as §1
# LU99A = system: LU99A
# Summary of the method: as §1
# ABC-1 = system: ABC-1
# Summary of the method: as §1
# HCC-827 = system: HCC-827
# Summary of the method: as §1
# NCI-H1793 = system: NCI-H1793
# Summary of the method: as §1
# SK-LU-1 = system: SK-LU-1
# Summary of the method: as §1
# CAL-12T = system: CAL-12T
# Summary of the method: as §1
# NCI-H2347 = system: NCI-H2347
# Summary of the method: as §1
# RERF-LC-KJ = system: RERF-LC-KJ
# Summary of the method: as §1
# NCI-H322M = system: NCI-H322M
# Summary of the method: as §1
# NCI-H1755 = system: NCI-H1755
# Summary of the method: as §1
# NCI-H2126 = system: NCI-H2126
# Summary of the method: as §1
# ChaGo-K-1 = system: ChaGo-K-1
# Summary of the method: as §1
# NCI-H1666 = system: NCI-H1666
# Summary of the method: as §1
# NCI-H1944 = system: NCI-H1944
# Summary of the method: as §1
# NCI-H3122 = system: NCI-H3122
# Summary of the method: as §1
# NCI-H1395 = system: NCI-H1395
# Summary of the method: as §1
# LXF-289 = system: LXF-289
# Summary of the method: as §1
# NCI-H1792 = system: NCI-H1792
# Summary of the method: as §1
smiles,measurement,setting,value
CCNC(=O)c1noc(-c2cc(C(C)C)c(O)cc2O)c1-c1ccc(CN2CCOCC2)cc1 [Luminespib] + Cc1nc(Nc2ncc(C(=O)Nc3c(C)cccc3Cl)s2)cc(N2CCN(CCO)CC2)n1 [Dasatinib] (partner 0.075 µM),relative viability,NCI-H520; first compound 0.002 µM,0.17
same,relative viability,NCI-H520; first compound 0.006325 µM,0.209
same,relative viability,NCI-H520; first compound 0.02 µM,0.198
same,relative viability,NCI-H520; first compound 0.06325 µM,0.151
same,relative viability,NCI-H520; first compound 0.2 µM,0.173
same,relative viability,NCI-H358; first compound 0.002 µM,0.149
same,relative viability,NCI-H358; first compound 0.006325 µM,0.164
same,relative viability,NCI-H358; first compound 0.02 µM,0.0956
same,relative viability,NCI-H358; first compound 0.06325 µM,0.0558
same,relative viability,NCI-H358; first compound 0.2 µM,0.0633
same,relative viability,LCLC-103H; first compound 0.002 µM,0.493
same,relative viability,LCLC-103H; first compound 0.006325 µM,0.491
same,relative viability,LCLC-103H; first compound 0.02 µM,0.41
same,relative viability,LCLC-103H; first compound 0.06325 µM,0.536
same,relative viability,LCLC-103H; first compound 0.2 µM,0.529
same,relative viability,LU99A; first compound 0.002 µM,0.658
same,relative viability,LU99A; first compound 0.006325 µM,0.406
same,relative viability,LU99A; first compound 0.02 µM,0.377
same,relative viability,LU99A; first compound 0.06325 µM,0.0593
same,relative viability,LU99A; first compound 0.2 µM,0.0775
same,relative viability,ABC-1; first compound 0.002 µM,0.691
same,relative viability,ABC-1; first compound 0.006325 µM,0.526
same,relative viability,ABC-1; first compound 0.02 µM,0.446
same,relative viability,ABC-1; first compound 0.06325 µM,0.197
same,relative viability,ABC-1; first compound 0.2 µM,0.193
same,relative viability,HCC-827; first compound 0.002 µM,0.217
same,relative viability,HCC-827; first compound 0.006325 µM,0.262
same,relative viability,HCC-827; first compound 0.02 µM,0.219
same,relative viability,HCC-827; first compound 0.06325 µM,0.259
same,relative viability,HCC-827; first compound 0.2 µM,0.117
same,relative viability,NCI-H1793; first compound 0.002 µM,0.39
same,relative viability,NCI-H1793; first compound 0.006325 µM,0.359
same,relative viability,NCI-H1793; first compound 0.02 µM,0.117
same,relative viability,NCI-H1793; first compound 0.06325 µM,0.116
same,relative viability,NCI-H1793; first compound 0.2 µM,0.14
same,relative viability,SK-LU-1; first compound 0.002 µM,0.194
same,relative viability,SK-LU-1; first compound 0.006325 µM,0.167
same,relative viability,SK-LU-1; first compound 0.02 µM,0.077
same,relative viability,SK-LU-1; first compound 0.06325 µM,0.049
same,relative viability,SK-LU-1; first compound 0.2 µM,0.0612
same,relative viability,CAL-12T; first compound 0.002 µM,0.519
same,relative viability,CAL-12T; first compound 0.006325 µM,0.485
same,relative viability,CAL-12T; first compound 0.02 µM,0.147
same,relative viability,CAL-12T; first compound 0.06325 µM,0.0553
same,relative viability,CAL-12T; first compound 0.2 µM,0.0762
same,relative viability,NCI-H2347; first compound 0.002 µM,0.299
same,relative viability,NCI-H2347; first compound 0.006325 µM,0.245
same,relative viability,NCI-H2347; first compound 0.02 µM,0.291
same,relative viability,NCI-H2347; first compound 0.06325 µM,0.256
same,relative viability,NCI-H2347; first compound 0.2 µM,0.198
same,relative viability,RERF-LC-KJ; first compound 0.002 µM,0.833
same,relative viability,RERF-LC-KJ; first compound 0.006325 µM,0.897
same,relative viability,RERF-LC-KJ; first compound 0.02 µM,0.603
same,relative viability,RERF-LC-KJ; first compound 0.06325 µM,0.232
same,relative viability,RERF-LC-KJ; first compound 0.2 µM,0.234
same,relative viability,NCI-H322M; first compound 0.002 µM,0.234
same,relative viability,NCI-H322M; first compound 0.006325 µM,0.262
same,relative viability,NCI-H322M; first compound 0.02 µM,0.215
same,relative viability,NCI-H322M; first compound 0.06325 µM,0.268
same,relative viability,NCI-H322M; first compound 0.2 µM,0.276
same,relative viability,NCI-H1755; first compound 0.002 µM,0.394
same,relative viability,NCI-H1755; first compound 0.006325 µM,0.472
same,relative viability,NCI-H1755; first compound 0.02 µM,0.455
same,relative viability,NCI-H1755; first compound 0.06325 µM,0.258
same,relative viability,NCI-H1755; first compound 0.2 µM,0.119
same,relative viability,NCI-H2126; first compound 0.002 µM,0.631
same,relative viability,NCI-H2126; first compound 0.006325 µM,0.606
same,relative viability,NCI-H2126; first compound 0.02 µM,0.399
same,relative viability,NCI-H2126; first compound 0.06325 µM,0.206
same,relative viability,NCI-H2126; first compound 0.2 µM,0.221
same,relative viability,ChaGo-K-1; first compound 0.002 µM,0.634
same,relative viability,ChaGo-K-1; first compound 0.006325 µM,0.648
same,relative viability,ChaGo-K-1; first compound 0.02 µM,0.539
same,relative viability,ChaGo-K-1; first compound 0.06325 µM,0.376
same,relative viability,ChaGo-K-1; first compound 0.2 µM,0.143
same,relative viability,NCI-H1666; first compound 0.002 µM,0.873
same,relative viability,NCI-H1666; first compound 0.006325 µM,0.711
same,relative viability,NCI-H1666; first compound 0.02 µM,0.904
same,relative viability,NCI-H1666; first compound 0.06325 µM,0.85
same,relative viability,NCI-H1666; first compound 0.2 µM,0.748
same,relative viability,NCI-H1944; first compound 0.002 µM,0.195
same,relative viability,NCI-H1944; first compound 0.006325 µM,0.232
same,relative viability,NCI-H1944; first compound 0.02 µM,0.169
same,relative viability,NCI-H1944; first compound 0.06325 µM,0.107
same,relative viability,NCI-H1944; first compound 0.2 µM,0.132
same,relative viability,NCI-H3122; first compound 0.002 µM,0.83
same,relative viability,NCI-H3122; first compound 0.006325 µM,0.812
same,relative viability,NCI-H3122; first compound 0.02 µM,0.0669
same,relative viability,NCI-H3122; first compound 0.06325 µM,0.0573
same,relative viability,NCI-H3122; first compound 0.2 µM,0.0548
same,relative viability,NCI-H1395; first compound 0.002 µM,0.418
same,relative viability,NCI-H1395; first compound 0.006325 µM,0.386
same,relative viability,NCI-H1395; first compound 0.02 µM,0.366
same,relative viability,NCI-H1395; first compound 0.06325 µM,0.33
same,relative viability,NCI-H1395; first compound 0.2 µM,0.309
same,relative viability,LXF-289; first compound 0.002 µM,0.271
same,relative viability,LXF-289; first compound 0.006325 µM,0.238
same,relative viability,LXF-289; first compound 0.02 µM,0.187
same,relative viability,LXF-289; first compound 0.06325 µM,0.0634
same,relative viability,LXF-289; first compound 0.2 µM,0.0395
same,relative viability,NCI-H1792; first compound 0.002 µM,0.737
same,relative viability,NCI-H1792; first compound 0.006325 µM,0.619
same,relative viability,NCI-H1792; first compound 0.02 µM,0.722
same,relative viability,NCI-H1792; first compound 0.06325 µM,0.361
same,relative viability,NCI-H1792; first compound 0.2 µM,0.242
